Results reported in the supplement of paper PMC6045584.
± gives the standard deviation of the averaged measurements.

Experiments:
[1] = compound: CCN(CC)CCCCNc1ncc2cc(-c3cc(OC)cc(OC)c3)c(NC(=O)NC(C)(C)C)nc2n1; assay: surviving fraction relative to DMSO-only wells; higher = less growth inhibition; conditions: exposure time: 5 days
Outline: (§1)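 Lines were retained only if, across three screens, replicate Pearson r was >0.7 and median Z' was >0.3. Viability was measured as CellTiter-Glo luminescence and reported as surviving fraction relative to the median of DMSO-only wells. Readings followed 10 minutes at room temperature, after log-phase tumour cells seeded at 250–500 per well in 384-well plates had been exposed, from 24 hours after seeding, continuously for five days to inhibitors at 0.5, 1, 5, 10, 50, 100, 500 and 1000 nM.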

[2] = compound: COc1cc2c(cc1O)CC[C@@H]1[C@@H]2CC[C@]2(C)[C@@H](O)CC[C@@H]12 [2-METHOXYESTRADIOL]; assay: as above; conditions: exposure time: 5 days
Outline: as §1

Row | Test System | surviving fraction ([1]; 0.5 nM) | surviving fraction ([1]; 1 nM) | surviving fraction ([1]; 5 nM) | surviving fraction ([1]; 10 nM) | surviving fraction ([1]; 50 nM) | surviving fraction ([1]; 100 nM) | surviving fraction ([1]; 500 nM) | surviving fraction ([1]; 1000 nM) | surviving fraction ([2]; 0.5 nM) | surviving fraction ([2]; 1 nM) | surviving fraction ([2]; 5 nM) | surviving fraction ([2]; 10 nM) | surviving fraction ([2]; 50 nM) | surviving fraction ([2]; 100 nM) | surviving fraction ([2]; 500 nM) | surviving fraction ([2]; 1000 nM)
1 | CADOES1 SOFT TISSUE | 0.942 ± 0.1 | 0.905 ± 0.1 | 0.935 ± 0.21 | 0.913 ± 0.071 | 0.895 ± 0.076 | 0.9 ± 0.036 | 0.901 ± 0.056 | 1.05 ± 0.043 | 0.795 ± 0.055 | 0.875 ± 0.099 | 0.846 ± 0.11 | 0.894 ± 0.18 | 0.886 ± 0.047 | 0.867 ± 0.15 | 0.964 ± 0.062 | 0.358 ± 0.098
2 | CAL51 BREAST | 0.92 ± 0.063 | 0.943 ± 0.013 | 0.964 ± 0.061 | 0.961 ± 0.042 | 0.858 ± 0.035 | 0.83 ± 0.03 | 0.673 ± 0.019 | 0.6517 ± 0.0035 | 0.949 ± 0.068 | 1.01 ± 0.081 | 0.992 ± 0.018 | 0.996 ± 0.063 | 0.967 ± 0.044 | 1 ± 0.046 | 0.48 ± 0.036 | 0.0988 ± 0.0065
3 | CAL72 BONE | 1.053 ± 0.0092 | 1.08 ± 0.054 | 1.08 ± 0.082 | 1.01 ± 0.024 | 0.833 ± 0.038 | 0.484 ± 0.013 | 0.281 ± 0.022 | 0.208 ± 0.026 | 1.03 ± 0.092 | 0.999 ± 0.14 | 1.01 ± 0.11 | 1.02 ± 0.13 | 1.05 ± 0.099 | 1.02 ± 0.18 | 0.848 ± 0.12 | 0.447 ± 0.2
4 | CAL120 BREAST | 0.933 ± 0.032 | 0.918 ± 0.031 | 0.9335 ± 0.0035 | 0.928 ± 0.023 | 0.852 ± 0.029 | 0.746 ± 0.053 | 0.565 ± 0.021 | 0.537 ± 0.06 | 0.915 ± 0.051 | 0.912 ± 0.083 | 0.944 ± 0.076 | 0.927 ± 0.029 | 0.931 ± 0.071 | 0.933 ± 0.021 | 0.676 ± 0.025 | 0.316 ± 0.03
5 | CASKI CERVIX | 0.927 ± 0.03 | 0.907 ± 0.022 | 0.953 ± 0.056 | 0.982 ± 0.042 | 0.996 ± 0.013 | 0.941 ± 0.05 | 0.751 ± 0.035 | 0.602 ± 0.014 | 0.889 ± 0.044 | 0.923 ± 0.029 | 0.899 ± 0.078 | 0.939 ± 0.063 | 1.02 ± 0.057 | 1.05 ± 0.052 | 0.683 ± 0.1 | 0.0593 ± 0.004
6 | CHLA90 AUTONOMIC GANGLIA | 0.906 ± 0.053 | 1.02 ± 0.046 | 0.892 ± 0.058 | 0.9023 ± 0.0046 | 0.907 ± 0.036 | 0.912 ± 0.022 | 0.7 ± 0.035 | 0.598 ± 0.072 | 0.969 ± 0.059 | 0.89 ± 0.077 | 0.879 ± 0.074 | 0.888 ± 0.022 | 0.997 ± 0.047 | 0.998 ± 0.029 | 0.896 ± 0.08 | 0.663 ± 0.005
7 | CME SYNOVIAL | 1.08 ± 0.089 | 1.254 ± 0.0095 | 1.24 ± 0.14 | 1.25 ± 0.16 | 1.18 ± 0.1 | 1.22 ± 0.05 | 1.06 ± 0.068 | 0.969 ± 0.11 | 1.17 ± 0.12 | 1.01 ± 0.079 | 1.19 ± 0.026 | 1.08 ± 0.014 | 1.26 ± 0.11 | 1.16 ± 0.15 | 0.711 ± 0.14 | 0.38 ± 0.027
8 | COLO320DM LARGE INTESTINE | 0.959 ± 0.04 | 1.14 ± 0.037 | 1.11 ± 0.08 | 1.05 ± 0.072 | 1.06 ± 0.064 | 1.1 ± 0.11 | 1.03 ± 0.068 | 1.1 ± 0.041 | 1.14 ± 0.11 | 1.11 ± 0.12 | 1.08 ± 0.15 | 1.08 ± 0.078 | 1.09 ± 0.15 | 0.965 ± 0.056 | 0.3693 ± 0.0033 | 0.266 ± 0.0093
9 | DU4475 BREAST | 0.845 ± 0.2 | 0.76 ± 0.22 | 0.743 ± 0.13 | 0.795 ± 0.19 | 0.814 ± 0.16 | 0.762 ± 0.11 | 0.702 ± 0.2 | 0.703 ± 0.18 | 0.835 ± 0.14 | 0.807 ± 0.045 | 0.849 ± 0.11 | 0.901 ± 0.23 | 0.782 ± 0.17 | 0.746 ± 0.066 | 0.452 ± 0.12 | 0.114 ± 0.044
